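Grown in 96-well plates, cells were treated for 48 hours with each compound at five concentrations. Insufficient inhibition: endpoint recorded as highest concentration tested. The concentration for 50% growth inhibition is given as GI50.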 Activity calls are given as the source filed them. Cut-off read from the data, not from the text of the source: active = GI50 up to about 1.1 µM and inactive = higher.
Key:
Test in all cases: DTP human tumour cell line panel, 48 h
SK-MEL-5 = test system: SK-MEL-5
A549 = test system: A549
SK-MEL-28 = test system: SK-MEL-28
CCRF-CEM = test system: CCRF-CEM
SK-OV-3 = test system: SK-OV-3
HT-29 = test system: HT-29
SF-539 = test system: SF-539
SN12C = test system: SN12C
Malme-3M = test system: Malme-3M
786-0 = test system: 786-0
KM12 = test system: KM12
PC-3 = test system: PC-3
UACC-257 = test system: UACC-257
SR = test system: SR
U-251 = test system: U-251
CAKI-1 = test system: CAKI-1
NCI-H226 = test system: NCI-H226
HOP-92 = test system: HOP-92
HL-60 = test system: HL-60
SNB-19 = test system: SNB-19

Structure (SMILES) | GI50 (SK-MEL-5) | GI50 (A549) | GI50 (SK-MEL-28) | GI50 (CCRF-CEM) | GI50 (SK-OV-3) | GI50 (HT-29) | GI50 (SF-539) | GI50 (SN12C) | GI50 (Malme-3M) | GI50 (786-0) | GI50 (KM12) | GI50 (PC-3) | GI50 (UACC-257) | GI50 (SR) | GI50 (U-251) | GI50 (CAKI-1) | GI50 (NCI-H226) | GI50 (HOP-92) | GI50 (HL-60) | GI50 (SNB-19)
CC(C)(C)c1nc2c(o1)/C(=N\c1ccc(F)cc1)c1ccccc1C2=O | 1.7 µM (inactive) | 6.49 µM (inactive) | 10.9 µM (inactive) | > 100 µM (inactive) | 22.1 µM (inactive) | 17.6 µM (inactive) | 4.6 µM (inactive) | 5.69 µM (inactive) | 1.97 µM (inactive) | 27.2 µM (inactive) | 7.78 µM (inactive) | 5.41 µM (inactive) | 2.36 µM (inactive) | > 43.5 µM (inactive) | 3.48 µM (inactive) | 50.9 µM (inactive) | 16.9 µM (inactive) | > 72.3 µM (inactive) | > 28.6 µM (inactive) | 8.24 µM (inactive)
CC(C)Oc1c(O)c2c3c(oc(=O)n3C=CC2c2ccccc2F)c1OC(C)C (centres undefined) | 18.4 µM (inactive) | 26.8 µM (inactive) | 53.8 µM (inactive) | 24.8 µM (inactive) | > 100 µM (inactive) | 21.7 µM (inactive) | 22.5 µM (inactive) | 38.4 µM (inactive) | 39.1 µM (inactive) | 33.4 µM (inactive) | 29.1 µM (inactive) | 13.5 µM (inactive) | 28.6 µM (inactive) | 16.7 µM (inactive) | 35.9 µM (inactive) | 38.5 µM (inactive) | 32.6 µM (inactive) | 28.1 µM (inactive) | 20.1 µM (inactive) | 39.3 µM (inactive)
[O-]/[N+](=N/c1ncc(-c2ccccc2)cn1)c1ncc(-c2ccccc2)cn1 | 42.7 µM (inactive) | > 100 µM (inactive) | > 61.9 µM (inactive) | 34.4 µM (inactive) | > 100 µM (inactive) | > 78 µM (inactive) | > 65.2 µM (inactive) | > 100 µM (inactive) | 32.2 µM (inactive) | 99.5 µM (inactive) | 67.6 µM (inactive) | 92.7 µM (inactive) | > 100 µM (inactive) | 16.4 µM (inactive) | 44.1 µM (inactive) | > 100 µM (inactive) | > 94.8 µM (inactive) | 69 µM (inactive) | 39.1 µM (inactive) | > 58.3 µM (inactive)
Nc1ncnc2c1ncn2C1C=C(CO)C(O)C1O (centres undefined) | 20.3 µM (inactive) | 14.9 µM (inactive) | 1.23 µM (inactive) | 0.305 µM (active) | 8.18 µM (inactive) | 2.06 µM (inactive) | 4.26 µM (inactive) | 7.03 µM (inactive) | 5.33 µM (inactive) | 4.17 µM (inactive) | 0.264 µM (active) | 6.92 µM (inactive) | 1.35 µM (inactive) | 0.0254 µM (active) | 10.4 µM (inactive) | 13.1 µM (inactive) | 22.4 µM (inactive) | 7.55 µM (inactive) | 0.34 µM (active) | 16 µM (inactive)
CC1C=CN(N(C)C)C2=C1C(=O)c1cnccc1C2=O (centres undefined) | 0.274 µM (active) | 0.331 µM (active) | 0.453 µM (active) | 2.09 µM (inactive) | 0.682 µM (active) | 0.617 µM (active) | 0.293 µM (active) | 0.168 µM (active) | 0.334 µM (active) | 0.195 µM (active) | 1.24 µM (inactive) | 1.49 µM (inactive) | 0.212 µM (active) | 0.0156 µM (active) | 0.417 µM (active) | 0.108 µM (active) | 0.508 µM (active) | 2.07 µM (inactive) | 1.47 µM (inactive) | 0.832 µM (active)
CN(C)/N=C1\CC(c2ccccc2)C(C#N)(C#N)C1(C#N)C#N (centres undefined) | 11.6 µM (inactive) | 36.4 µM (inactive) | 19.2 µM (inactive) | 6.14 µM (inactive) | 50.1 µM (inactive) | 26.1 µM (inactive) | 41.4 µM (inactive) | 20.8 µM (inactive) | 16.9 µM (inactive) | 17.7 µM (inactive) | 49.3 µM (inactive) | 19 µM (inactive) | 18.6 µM (inactive) | 18.5 µM (inactive) | 35.3 µM (inactive) | 8.63 µM (inactive) | 23.8 µM (inactive) | 14.8 µM (inactive) | 2.5 µM (inactive) | 24.5 µM (inactive)
O=c1c2cccnc2[nH]c2ccc3cn[nH]c3c12 | > 10 µM (inactive) | > 10 µM (inactive) | > 10 µM (inactive) | 6.15 µM (inactive) | > 10 µM (inactive) | > 10 µM (inactive) | 7.52 µM (inactive) | 9.06 µM (inactive) | > 10 µM (inactive) | > 10 µM (inactive) | 5.05 µM (inactive) | > 10 µM (inactive) | > 10 µM (inactive) | 3.29 µM (inactive) | > 10 µM (inactive) | 8.77 µM (inactive) | 5.38 µM (inactive) | > 10 µM (inactive) | 4.49 µM (inactive) | > 10 µM (inactive)
COc1ccc(C(=O)N=C2N(c3ccccc3)C(=N/c3ccccc3)/C(=N\c3ccccc3)N2c2ccccc2)cc1 | 23.2 µM (inactive) | 30.3 µM (inactive) | 18.3 µM (inactive) | > 100 µM (inactive) | 33.7 µM (inactive) | > 95.3 µM (inactive) | 35 µM (inactive) | > 67.1 µM (inactive) | 20.6 µM (inactive) | 17.9 µM (inactive) | > 61.2 µM (inactive) | 16.8 µM (inactive) | 48.2 µM (inactive) | > 100 µM (inactive) | 19.1 µM (inactive) | 39.9 µM (inactive) | 29.9 µM (inactive) | 2.9 µM (inactive) | > 100 µM (inactive) | 19.2 µM (inactive)
COC1=C2CC(C)CC(OC)C(O)C(C)/C=C(\C)C(OC(N)=O)C(OC)/C=C\C=C(/C)C(=O)NC(=C(/C=N/N3CCCCC3)C1=O)C2=O (centres undefined) | 15.8 µM (inactive) | 21.5 µM (inactive) | 18.7 µM (inactive) | 2.55 µM (inactive) | 21.9 µM (inactive) | 6.55 µM (inactive) | 7.33 µM (inactive) | 4.5 µM (inactive) | 15.2 µM (inactive) | 10.2 µM (inactive) | 11.6 µM (inactive) | 15.3 µM (inactive) | 11.9 µM (inactive) | 2.59 µM (inactive) | 6.4 µM (inactive) | 15.7 µM (inactive) | 12.4 µM (inactive) | 15.7 µM (inactive) | 1.95 µM (inactive) | 16.1 µM (inactive)
O=C1OC(c2ccco2)=N/C1=C\c1ccc(Cl)c(Cl)c1 | > 100 µM (inactive) | 62.1 µM (inactive) | > 100 µM (inactive) | > 100 µM (inactive) | 47.2 µM (inactive) | > 100 µM (inactive) | 50 µM (inactive) | > 100 µM (inactive) | 86.1 µM (inactive) | 38 µM (inactive) | > 100 µM (inactive) | > 100 µM (inactive) | > 100 µM (inactive) | > 100 µM (inactive) | 57.7 µM (inactive) | 91 µM (inactive) | 57.5 µM (inactive) | > 100 µM (inactive) | > 100 µM (inactive) | > 100 µM (inactive)
Cc1nc2cc(/N=N/c3c(C)noc3C)ccc2[nH]1 | 12.4 µM (inactive) | 19.1 µM (inactive) | 17.6 µM (inactive) | 25.2 µM (inactive) | 18.9 µM (inactive) | 17.7 µM (inactive) | 17.6 µM (inactive) | 33.6 µM (inactive) | 25.9 µM (inactive) | 28.1 µM (inactive) | 49.8 µM (inactive) | 27.6 µM (inactive) | 44.1 µM (inactive) | 16.9 µM (inactive) | 28.4 µM (inactive) | 18.9 µM (inactive) | > 100 µM (inactive) | 14.9 µM (inactive) | 13.1 µM (inactive) | 43.9 µM (inactive)
O=C(OCCN=C1c2ccccc2CCc2ccccc21)c1ccccc1 | > 100 µM (inactive) | > 100 µM (inactive) | > 100 µM (inactive) | > 100 µM (inactive) | > 100 µM (inactive) | > 100 µM (inactive) | > 100 µM (inactive) | > 100 µM (inactive) | > 100 µM (inactive) | > 100 µM (inactive) | > 100 µM (inactive) | > 100 µM (inactive) | > 100 µM (inactive) | 18 µM (inactive) | > 100 µM (inactive) | > 100 µM (inactive) | 53.1 µM (inactive) | > 100 µM (inactive) | > 100 µM (inactive) | > 100 µM (inactive)
O=S(=O)(O)c1ccc2c(/N=N/c3ccc(Sc4ccc(/N=N/c5c(O)ccc6cc(S(=O)(=O)O)ccc56)cc4)cc3)c(O)ccc2c1 | > 100 µM (inactive) | > 100 µM (inactive) | > 100 µM (inactive) | > 100 µM (inactive) | > 100 µM (inactive) | > 100 µM (inactive) | > 100 µM (inactive) | > 100 µM (inactive) | > 100 µM (inactive) | > 100 µM (inactive) | > 100 µM (inactive) | > 100 µM (inactive) | > 100 µM (inactive) | > 100 µM (inactive) | > 100 µM (inactive) | > 100 µM (inactive) | > 100 µM (inactive) | > 100 µM (inactive) | > 100 µM (inactive) | > 100 µM (inactive)
N=C1NC(c2ccc(Cl)cc2)=CC(c2cccc(Cl)c2)S1 (centres undefined) | 27 µM (inactive) | 24.7 µM (inactive) |  | 22.4 µM (inactive) | 36.3 µM (inactive) | 30.8 µM (inactive) | 48.8 µM (inactive) | 27.7 µM (inactive) | 38 µM (inactive) | 36.1 µM (inactive) | 27 µM (inactive) | 28.2 µM (inactive) | 25.2 µM (inactive) | 28.7 µM (inactive) | 22.4 µM (inactive) | 24.1 µM (inactive) | 26.7 µM (inactive) | 16.9 µM (inactive) | 38 µM (inactive) | 16.8 µM (inactive)
